Data published in patent EP1280528B1, “R-ELIPRODIL FOR TREATING GLAUCOMA” (Alcon, Inc, priority 2000, dated 2001).
“Also recorded” adds a separate entry of the source.

What was measured:
[1] = test system: rat retinal ganglion cells; assay: glutamate-induced rat retinal ganglion cell death; format: cell-based; details: 10nM for 30 minutes, then 100µM glutamate, viable cells counted after 3 days; Figure 1
Source text: Retinal ganglion cells were selected as they represent the retinal cell that degenerates in glaucoma. MK-801 was selected as a reference NMDA antagonist.
Isolation of rat retinal ganglion cells and assessment of viability in the absence and presence of glutamate was described in Pang, et al., "Protection by Eliprodil Against Excitotoxicity in Cultured Rat Retinal Ganglion Cells", Investigative Ophthalmology & Visual Science, Vol. 40(6), pp. 1170-1176, May, 1999. Briefly, isolated cultured rat retinal ganglion cells were treated with racemic (R/S) eliprodil (10nM), R-eliprodil (10nM), or S-eliprodil (10nM) for thirty (30) minutes followed by the addition of 100µM glutamate. Survival was determined by counting viable cells after an incubation period of three (3) days. Survival with vehicle alone defines 100%. […] S-eliprodil was ineffective.

[2] = test system: sigma receptors; details: rat brain; U.S. Patent No. 5,023,266; cited from earlier work
[3] = biological target: histamine H1 (Homo sapiens, UniProt P35367); assay: binding studies, histamine H1
Sequence of histamine H1 (P35367 whole entry): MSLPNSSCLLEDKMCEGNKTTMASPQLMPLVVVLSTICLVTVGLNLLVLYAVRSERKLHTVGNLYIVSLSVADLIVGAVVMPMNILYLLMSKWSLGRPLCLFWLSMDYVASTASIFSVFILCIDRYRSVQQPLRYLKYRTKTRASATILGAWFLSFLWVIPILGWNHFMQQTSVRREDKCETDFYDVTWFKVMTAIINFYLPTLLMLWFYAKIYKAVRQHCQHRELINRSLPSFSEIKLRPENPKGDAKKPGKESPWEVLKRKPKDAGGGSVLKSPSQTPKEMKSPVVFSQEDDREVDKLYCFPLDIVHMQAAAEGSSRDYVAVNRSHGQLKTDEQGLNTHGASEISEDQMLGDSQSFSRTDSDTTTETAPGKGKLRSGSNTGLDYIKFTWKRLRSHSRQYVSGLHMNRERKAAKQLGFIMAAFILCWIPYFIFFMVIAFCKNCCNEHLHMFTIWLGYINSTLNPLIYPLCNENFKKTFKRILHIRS
Source text: (§1) The role of these pharmacological activities in the neuroprotective efficacy has not been established for this drug.

[4] = biological target: β3-adrenergic (Homo sapiens, UniProt P13945); assay: binding studies, β3-adrenergic
Sequence of β3-adrenergic (P13945 whole entry): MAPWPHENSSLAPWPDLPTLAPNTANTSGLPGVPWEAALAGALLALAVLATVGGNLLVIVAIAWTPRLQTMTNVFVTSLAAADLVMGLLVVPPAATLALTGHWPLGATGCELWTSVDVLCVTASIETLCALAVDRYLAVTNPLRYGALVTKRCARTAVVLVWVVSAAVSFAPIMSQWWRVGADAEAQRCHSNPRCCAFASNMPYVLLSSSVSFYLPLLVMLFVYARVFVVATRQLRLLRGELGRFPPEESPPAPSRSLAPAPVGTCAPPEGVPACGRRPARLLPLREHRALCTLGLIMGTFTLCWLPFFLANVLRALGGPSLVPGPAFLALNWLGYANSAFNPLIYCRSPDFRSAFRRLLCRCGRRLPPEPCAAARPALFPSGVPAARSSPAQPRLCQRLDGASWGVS
Source text: as §1

[5] = test system: α1-adrenergic; assay: binding studies, α1-adrenergic
Source text: as §1

[6] = biological target: 5-HT uptake (Homo sapiens, UniProt P31645); assay: binding studies, 5-HT uptake
Sequence of 5-HT uptake (P31645 whole entry): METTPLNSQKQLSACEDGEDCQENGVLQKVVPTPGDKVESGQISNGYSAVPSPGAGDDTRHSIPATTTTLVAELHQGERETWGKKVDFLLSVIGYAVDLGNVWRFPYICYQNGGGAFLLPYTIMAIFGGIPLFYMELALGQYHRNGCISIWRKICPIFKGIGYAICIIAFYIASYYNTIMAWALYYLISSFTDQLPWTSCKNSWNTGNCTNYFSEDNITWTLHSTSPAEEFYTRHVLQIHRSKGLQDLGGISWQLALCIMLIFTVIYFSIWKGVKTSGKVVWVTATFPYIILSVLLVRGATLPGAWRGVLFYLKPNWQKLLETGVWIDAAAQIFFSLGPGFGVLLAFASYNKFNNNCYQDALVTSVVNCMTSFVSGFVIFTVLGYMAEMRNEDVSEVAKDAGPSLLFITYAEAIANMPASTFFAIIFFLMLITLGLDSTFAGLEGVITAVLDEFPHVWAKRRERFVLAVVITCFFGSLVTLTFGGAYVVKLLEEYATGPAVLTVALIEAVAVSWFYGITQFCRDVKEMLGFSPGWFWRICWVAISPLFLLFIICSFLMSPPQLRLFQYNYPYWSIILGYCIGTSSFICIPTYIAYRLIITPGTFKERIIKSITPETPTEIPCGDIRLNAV
Source text: as §1

[7] = biological target: 5-HT7 (Homo sapiens, UniProt P34969); assay: binding studies, 5-HT7
Sequence of 5-HT7 (P34969 whole entry, species assumed): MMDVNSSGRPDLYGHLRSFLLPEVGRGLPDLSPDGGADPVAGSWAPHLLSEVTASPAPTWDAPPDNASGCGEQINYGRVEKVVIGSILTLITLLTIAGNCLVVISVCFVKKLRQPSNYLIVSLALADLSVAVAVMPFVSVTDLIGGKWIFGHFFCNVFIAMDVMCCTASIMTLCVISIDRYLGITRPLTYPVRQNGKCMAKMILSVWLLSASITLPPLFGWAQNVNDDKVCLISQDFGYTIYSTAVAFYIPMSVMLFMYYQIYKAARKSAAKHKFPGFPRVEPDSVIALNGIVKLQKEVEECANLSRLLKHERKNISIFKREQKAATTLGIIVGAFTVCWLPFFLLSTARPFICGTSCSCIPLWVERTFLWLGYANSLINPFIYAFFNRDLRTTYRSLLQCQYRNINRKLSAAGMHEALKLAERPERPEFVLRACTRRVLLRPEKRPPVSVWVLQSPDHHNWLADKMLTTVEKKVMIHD
Source text: as §1

[8] = test system: piglet Purkinje fibers from the heart; assay: action potential duration in piglet Purkinje fibers; details: for maximum effect on APD90: comparison between compounds; for concentration with statistically significant prolongation of APD90: action potential duration at 90% repolarization
Description: (§2) Eliprodil and its enantiomers were evaluated for their potential for prolonging QTc by determining their dose-related effects on cardiac electrical activity. Two different experimental models were utilized for these studies: (1) Action potential duration in piglet Purkinje fibers from the heart and (2) Electrocardiographic parameters in pentobarbital anesthetized cats.

[9] = biological target: T1, 5-HT1A (Homo sapiens, UniProt P08908); assay: binding studies, 5-HT1A
T1 sequence (P08908 1-422): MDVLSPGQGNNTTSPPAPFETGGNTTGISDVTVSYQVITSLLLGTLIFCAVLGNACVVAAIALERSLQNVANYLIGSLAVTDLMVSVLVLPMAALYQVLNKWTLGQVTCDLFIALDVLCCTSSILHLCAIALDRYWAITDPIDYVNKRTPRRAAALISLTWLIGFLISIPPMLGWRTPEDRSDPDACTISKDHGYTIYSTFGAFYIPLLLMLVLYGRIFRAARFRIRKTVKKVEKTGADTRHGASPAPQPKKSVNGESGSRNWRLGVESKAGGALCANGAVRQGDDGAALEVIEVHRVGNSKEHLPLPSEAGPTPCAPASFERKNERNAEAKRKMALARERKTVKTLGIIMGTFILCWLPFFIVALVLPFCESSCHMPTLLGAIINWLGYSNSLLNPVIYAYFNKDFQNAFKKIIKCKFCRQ
Source text: as §1

[10] = test system: humans; details: following some doses in humans; cited from earlier work
[11] = test system: lateral vestibular nucleus; assay: NMDA-induced firing rate of the lateral vestibular nucleus in vivo
[12] = test system: pentobarbital-anesthetized cats; assay: hemodynamic and electrocardiographic parameters in anesthetized cats; details: increasing doses 0.01 to 3 mg/kg, five-minute intravenous infusion every 20 minutes
Description: as §2
Eliprodil and its two enantiomers were also evaluated for hemodynamic and electrocardiographic parameters in pentobarbital-anesthetized cats. […] Compounds were administered at increasing doses from 0.01 to 3 mg/kg as a five-minute intravenous infusion every 20 minutes. […]

[13] = U.S. Patent No. 5,547,963; cited from earlier work
[14] = biological target: histamine H2 (Homo sapiens, UniProt P25021); assay: binding studies, histamine H2
Sequence of histamine H2 (P25021 whole entry): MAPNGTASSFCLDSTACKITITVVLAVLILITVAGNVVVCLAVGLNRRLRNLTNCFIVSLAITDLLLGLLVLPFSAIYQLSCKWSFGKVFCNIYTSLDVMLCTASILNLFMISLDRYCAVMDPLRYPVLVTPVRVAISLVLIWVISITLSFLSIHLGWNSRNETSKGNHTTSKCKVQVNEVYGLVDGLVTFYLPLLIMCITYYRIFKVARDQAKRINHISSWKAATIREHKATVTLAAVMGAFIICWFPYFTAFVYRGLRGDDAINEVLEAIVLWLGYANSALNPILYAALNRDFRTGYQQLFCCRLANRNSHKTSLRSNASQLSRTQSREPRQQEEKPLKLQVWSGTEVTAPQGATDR
Source text: as §1

[15] = test system: hippocampal slices; assay: recovery of synaptic transmission after hypoxia in hippocampal slices; format: cell-based; details: for efficacy for recovery of excitatory post synaptic potentials following hypoxia: at a comparable dose
Description: Dose-response relations comparing the efficacy of Racemic (R/S)-eliprodil (open circles), R-eliprodil (closed circles) and memantine (closed diamonds) for their ability to improve recovery of synaptic transmission following a 15 minute period of hypoxia in hippocampal slices in vitro (Figure 2).
Preparation of the hypoxic hippocampal slice preparation has been reported by Reyes et al., "Eliprodil, a non-competitive, NR2B-selective NMDA antagonist, protects pyramidal neurons in hippocampal slices from hypoxic/ischemic damage", Brain Research, Vol. 782, pp. 212-218, 1998. Briefly, hippocampal slices were prepared acutely the same day as the experiment, and each compound was bath applied 30 minutes prior to delivery of the 15 minute hypoxic insult. Recovery of evoked epsps is expressed as percent of the initial, pre-hypoxia epsp maximum slope, with this percent recovery assessed 60 minutes after reoxygenation. Each point is the mean ± S.E.M. of 8 slices at each dose, and EC50's were calculated from a single-active site Lineweaver-Burke linear fit.

[16] = biological target: 5-HT2A (Homo sapiens, UniProt P28223); assay: binding studies, 5-HT2A
Sequence of 5-HT2A (P28223 whole entry): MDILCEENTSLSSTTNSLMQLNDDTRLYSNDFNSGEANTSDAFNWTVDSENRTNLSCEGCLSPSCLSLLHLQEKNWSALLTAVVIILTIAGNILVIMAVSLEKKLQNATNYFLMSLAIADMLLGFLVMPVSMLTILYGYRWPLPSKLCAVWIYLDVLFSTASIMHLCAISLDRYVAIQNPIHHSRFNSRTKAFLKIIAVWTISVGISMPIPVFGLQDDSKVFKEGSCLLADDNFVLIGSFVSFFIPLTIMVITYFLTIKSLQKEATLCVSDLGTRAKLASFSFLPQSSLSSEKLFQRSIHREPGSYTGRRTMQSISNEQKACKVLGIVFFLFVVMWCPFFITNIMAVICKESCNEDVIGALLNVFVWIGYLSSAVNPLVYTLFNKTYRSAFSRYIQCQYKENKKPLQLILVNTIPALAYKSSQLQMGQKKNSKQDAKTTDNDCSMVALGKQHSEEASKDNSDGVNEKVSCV
Source text: as §1

[17] = biological target: NMDA receptor (Homo sapiens, UniProt Q05586+Q13224); assay: electrophysiology and ligand displacement studies at the NMDA receptor; format: binding
Sequence of NMDA receptor (Q13224 27-1484, other chains not shown): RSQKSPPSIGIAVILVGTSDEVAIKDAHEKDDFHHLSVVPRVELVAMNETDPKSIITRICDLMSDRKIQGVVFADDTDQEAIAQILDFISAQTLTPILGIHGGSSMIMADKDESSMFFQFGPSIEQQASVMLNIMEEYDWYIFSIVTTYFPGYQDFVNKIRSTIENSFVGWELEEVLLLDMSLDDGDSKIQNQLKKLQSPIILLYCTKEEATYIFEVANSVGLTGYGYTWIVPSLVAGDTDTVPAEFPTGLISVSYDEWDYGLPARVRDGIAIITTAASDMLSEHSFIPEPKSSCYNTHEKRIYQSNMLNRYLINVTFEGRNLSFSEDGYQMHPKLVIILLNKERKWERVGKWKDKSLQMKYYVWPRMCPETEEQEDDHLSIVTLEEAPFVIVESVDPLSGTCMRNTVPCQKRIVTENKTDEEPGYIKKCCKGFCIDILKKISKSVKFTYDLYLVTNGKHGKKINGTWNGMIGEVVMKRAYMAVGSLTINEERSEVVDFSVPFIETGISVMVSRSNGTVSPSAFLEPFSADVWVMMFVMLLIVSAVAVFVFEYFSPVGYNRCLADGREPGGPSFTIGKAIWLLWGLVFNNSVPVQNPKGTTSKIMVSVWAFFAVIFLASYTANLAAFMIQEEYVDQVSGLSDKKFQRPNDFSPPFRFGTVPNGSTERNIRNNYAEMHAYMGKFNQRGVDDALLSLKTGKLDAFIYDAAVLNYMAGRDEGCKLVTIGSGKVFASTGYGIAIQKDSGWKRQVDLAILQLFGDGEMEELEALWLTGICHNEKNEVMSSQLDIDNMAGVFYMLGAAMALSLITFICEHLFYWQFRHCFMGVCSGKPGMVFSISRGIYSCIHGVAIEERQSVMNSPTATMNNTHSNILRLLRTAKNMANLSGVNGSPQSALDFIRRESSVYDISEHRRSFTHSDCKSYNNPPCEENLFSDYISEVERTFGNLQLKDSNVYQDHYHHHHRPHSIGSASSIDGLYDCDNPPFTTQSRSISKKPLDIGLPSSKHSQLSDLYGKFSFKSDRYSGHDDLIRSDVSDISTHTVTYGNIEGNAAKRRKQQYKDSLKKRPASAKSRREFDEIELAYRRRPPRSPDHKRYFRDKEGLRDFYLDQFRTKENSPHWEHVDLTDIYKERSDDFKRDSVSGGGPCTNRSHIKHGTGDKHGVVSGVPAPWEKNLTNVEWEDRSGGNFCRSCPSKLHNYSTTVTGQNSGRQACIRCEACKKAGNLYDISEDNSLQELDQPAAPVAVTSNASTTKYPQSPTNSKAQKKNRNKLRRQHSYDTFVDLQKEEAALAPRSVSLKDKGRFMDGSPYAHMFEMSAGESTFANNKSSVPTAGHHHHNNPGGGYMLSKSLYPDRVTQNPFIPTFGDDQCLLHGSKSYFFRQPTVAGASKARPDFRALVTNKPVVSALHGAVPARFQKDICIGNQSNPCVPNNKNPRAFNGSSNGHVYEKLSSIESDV

[18] = plasma level in the anesthetized cat protocol; format: in vivo; details: 0.1 mg/kg dose, intravenous infusion

SMILES | neuroprotective effect (survival of retinal ganglion cells) [1] | maximum effect on APD90 [8] | inhibition of NMDA-induced firing rate [11] | Threshold Dose, Heart Rate Decrease [12] | Threshold Dose, Mean Blood Pressure Decrease [12] | Threshold Dose, QTc Prolongation [12] | neurotrophic effects [13] | efficacy for recovery of excitatory post synaptic potentials following hypoxia [15] | Ki [17] | concentration with statistically significant prolongation of APD90 [8] | further results
OC(CN1CCC(Cc2ccc(F)cc2)CC1)c1ccc(Cl)cc1 (racemic) [Eliprodil] | marked neuroprotective activity | equal to that of S(+) eliprodil | strongly inhibit | 0.1 mg/kg | 1.0 mg/kg | 0.03 mg/kg | Equipotency | less effective |  |  | binding to sigma receptors [2]: potently bind; affinity [3]: sub-micromolar; affinity [4]: sub-micromolar; affinity [5]: sub-micromolar; affinity [6]: sub-micromolar; affinity [7]: sub-micromolar; affinity [9]: sub-micromolar; QTc prolongation [10]: asymptomatic QTc prolongation; affinity [14]: sub-micromolar; affinity [16]: sub-micromolar
O[C@H](CN1CCC(Cc2ccc(F)cc2)CC1)c1ccc(Cl)cc1 [S-eliprodil] | ineffective |  | almost inactive at the highest dose tested | 0.1 mg/kg | 1.0 mg/kg | 0.01 mg/kg | Equipotency | less effective | 10 µM | ≥ 30 nM | 
O[C@@H](CN1CCC(Cc2ccc(F)cc2)CC1)c1ccc(Cl)cc1 [R-eliprodil, R-α-(4-chlorophenyl)-4-(4-fluorophenylmethyl)-1-peperidineethanol] | marked neuroprotective activity; also recorded: as efficacious as a protectant as racemic eliprodil | less than that seen with S(+) eliprodil | strongly inhibit | 0.3 mg/kg | 1.0 mg/kg | 0.1 mg/kg | Equipotency | substantial recovery; also recorded: more efficacious than either racemic or S-eliprodil | 0.2 µM | ≥ 100 nM | potency for recovery of evoked epsps (EC50 comparison) ([15]; bath applied 30 minutes before 15 minute hypoxia, recovery 60 minutes after reoxygenation, p<0.05, Figure 2): statistically significantly more potent; plasma level [18]: 34.9 ± 2.8 ng/mL
